In the supplement of paper PMC11451515:

System: NOMO1
Test: cell viability relative to DMSO control; higher = less cytotoxic
Conditions: 48 h
In short: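 Viability was expressed as a per-plate percentage of DMSO wells, with cell-free wells as background. Leukemia cells (NOMO1 or SEM at 500 cells/well, P12-Ichikawa at 1000 cells/well) were adapted for at least four passages in each medium and seeded in 1536-well plates (5 μl). Library compounds in DMSO were pin-dosed over an 11-point threefold series from 47 μM to 0.79 nM, and CellTiter-Glo One luminescence was read after 48 h at 37°C.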

[1] = HPLM + 10% dialyzed FBS, 0.000781 µM
[2] = HPLM + 10% dialyzed FBS, 0.00234 µM
[3] = HPLM + 10% dialyzed FBS, 0.00702 µM
[4] = HPLM + 10% dialyzed FBS, 0.0211 µM
[5] = HPLM + 10% dialyzed FBS, 0.0632 µM
[6] = HPLM + 10% dialyzed FBS, 0.19 µM
[7] = HPLM + 10% dialyzed FBS, 0.569 µM
[8] = HPLM + 10% dialyzed FBS, 1.71 µM
[9] = HPLM + 10% dialyzed FBS, 5.12 µM
[10] = HPLM + 10% dialyzed FBS, 15.4 µM
[11] = HPLM + 10% dialyzed FBS, 46.1 µM
[12] = RPMI 5 mM glucose + 10% FBS, 0.000781 µM
[13] = RPMI 5 mM glucose + 10% FBS, 0.00234 µM
[14] = RPMI 5 mM glucose + 10% FBS, 0.00702 µM
[15] = RPMI 5 mM glucose + 10% FBS, 0.0211 µM
[16] = RPMI 5 mM glucose + 10% FBS, 0.0632 µM
[17] = RPMI 5 mM glucose + 10% FBS, 0.19 µM
[18] = RPMI 5 mM glucose + 10% FBS, 0.569 µM
[19] = RPMI 5 mM glucose + 10% FBS, 1.71 µM
[20] = RPMI 5 mM glucose + 10% FBS, 5.12 µM
[21] = RPMI 5 mM glucose + 10% FBS, 15.4 µM
[22] = RPMI 5 mM glucose + 10% FBS, 46.1 µM
[23] = RPMI 5 mM glucose + 10% dialyzed FBS, 0.000781 µM
[24] = RPMI 5 mM glucose + 10% dialyzed FBS, 0.00234 µM
[25] = RPMI 5 mM glucose + 10% dialyzed FBS, 0.00702 µM
[26] = RPMI 5 mM glucose + 10% dialyzed FBS, 0.0211 µM
[27] = RPMI 5 mM glucose + 10% dialyzed FBS, 0.0632 µM
[28] = RPMI 5 mM glucose + 10% dialyzed FBS, 0.19 µM
[29] = RPMI 5 mM glucose + 10% dialyzed FBS, 0.569 µM
[30] = RPMI 5 mM glucose + 10% dialyzed FBS, 1.71 µM
[31] = RPMI 5 mM glucose + 10% dialyzed FBS, 5.12 µM
[32] = RPMI 5 mM glucose + 10% dialyzed FBS, 15.4 µM
[33] = RPMI 5 mM glucose + 10% dialyzed FBS, 46.1 µM

SMILES	cell viability [1] [%]	cell viability [2] [%]	cell viability [3] [%]	cell viability [4] [%]	cell viability [5] [%]	cell viability [6] [%]	cell viability [7] [%]	cell viability [8] [%]	cell viability [9] [%]	cell viability [10] [%]	cell viability [11] [%]	cell viability [12] [%]	cell viability [13] [%]	cell viability [14] [%]	cell viability [15] [%]	cell viability [16] [%]	cell viability [17] [%]	cell viability [18] [%]	cell viability [19] [%]	cell viability [20] [%]	cell viability [21] [%]	cell viability [22] [%]	cell viability [23] [%]	cell viability [24] [%]	cell viability [25] [%]	cell viability [26] [%]	cell viability [27] [%]	cell viability [28] [%]	cell viability [29] [%]	cell viability [30] [%]	cell viability [31] [%]	cell viability [32] [%]	cell viability [33] [%]
C[S+](=O)([O-])N1CCc2c(-c3cnc(N)nc3)nc(N3CCOCC3)nc21	105	102	112	118	104	107	86.6	76.4	77.9	76.2	74.4	107	104	99.3	110	102	99.5	101	88.9	95	81.9	74	99	103	99.6	97.7	93.6	96.9	77.3	69.4	73.7	69.7	56.8
C=C[C@H]1CN2CC[C@H]1C[C@H]2[C@H](O)c1ccnc2ccc(OC)cc12	116	89.2	96.3	109	105	98.4	115	96.4	112	101	86.8	86.5	87.5	84.3	87.8	103	97.9	98.7	103	99.5	97.6	76.4	92.3	103	98.9	96.1	104	108	113	105	106	105	68.8
C/C=C1\C2C=C(C)CC1(N)c1ccc(=O)[nH]c1C2 (centres undefined)	107	117	113	114	109	104	117	106	110	95.1	79.4	94.6	96.4	99.2	115	96.3	93.7	102	105	102	91	90.8	90.4	103	96.7	103	108	96.1	94.1	99.9	95	98.8	81
CC(C)=CC[C@@H](O)C/1=C/C(=O)C2=C(O)C=CC(=C2C1=O)O	91.5	108	95.5	100	105	113	123	85.1	33.5	25.8	17	93.7	105	102	102	95.7	96	108	52.6	17.3	17.9	12.2	88.2	92.6	93	113	98.1	109	107	70.2	24.5	15.3	21.2
C=C(C)[C@H]1Cc2c(ccc3c2O[C@@H]2COc4cc(OC)c(OC)cc4[C@@H]2C3=O)O1	103	102	120	110	124	116	107	89.2	52.6	37.3	28.8	105	118	105	106	109	102	102	102	63.8	23.9	20.4	99.3	101	98.4	99.8	104	104	87.8	98.7	81.5	29.5	24.1
OC1=CC2=C(C(=C1)O)C(=O)\C=C(/O2)C3=CC=CC=C3	106	106	103	116	109	116	108	118	121	93.6	20.2	101	97.8	92.1	97.5	100	108	92.7	96.1	101	105	15.6	91.9	103	106	104	115	102	115	112	98.9	98.3	27.6
CC/1=C(/N2[C@H](SC1)[C@H](NC(=O)[C@H](N)\C3=C\C\C=C/C3)C2=O)C(O)=O	97.5	110	103	109	108	121	123	135	121	115	121	110	119	114	118	119	124	109	117	129	125	127	102	109	104	124	115	108	114	121	126	109	118
Cn1cnc2c1c(=O)[nH]c(=O)n2C	112	102	102	119	108	110	116	96.4	105	78.3	5.56	99.2	110	96.2	92.6	97	96.5	103	88.1	99.3	91.6	7.98	101	91.7	99	114	109	104	100	102	96	90	9.87
